Experimental data as given in the NIST ThermoML archive (doi:10.1021/je5007407).
Values joined by “and” are separate entries in the source; they are usually repeats but may differ in a detail not shown here. Equal entries are not always repeated. ± gives the expanded uncertainty stated by the source.

Experiment: xn = mol fraction of the nth substance listed
Conditions: Gas, Frequency=2 MHz, Pulse-echo method

Q: Which results are given for `CCC` [propane] + O=C=O?
A: speed of sound (248.59 K, 8020 kPa, x2 = 0.9981): 802.3 ± 1.1 m/s; speed of sound (248.59 K, 8030 kPa, x2 = 0.9981): 802.3 ± 1.1 m/s; speed of sound (248.59 K, 14980 kPa, x2 = 0.9981): 856.8 ± 1 m/s; speed of sound (248.59 K, 24990 kPa, x2 = 0.9981): 923 ± 1 m/s; speed of sound (248.59 K, 50040 kPa, x2 = 0.9981): 1051.1 ± 1 m/s; speed of sound (248.59 K, 74970 kPa, x2 = 0.9981): 1149.9 ± 1 m/s; speed of sound (248.59 K, 100010 kPa, x2 = 0.9981): 1233.1 ± 1.1 m/s; speed of sound (248.59 K, 124970 kPa, x2 = 0.9981): 1303.8 ± 1.1 m/s; speed of sound (248.59 K, 150040 kPa, x2 = 0.9981): 1367.4 ± 1.2 m/s; speed of sound (248.88 K, 8270 kPa, x2 = 0.9376): 799.4 ± 1.1 m/s; speed of sound (248.88 K, 15030 kPa, x2 = 0.9376): 855.4 ± 1.1 m/s; speed of sound (248.88 K, 25030 kPa, x2 = 0.9376): 924.8 ± 1 m/s; speed of sound (248.88 K, 49910 kPa, x2 = 0.9376): 1056.8 ± 1 m/s; speed of sound (248.88 K, 75000 kPa, x2 = 0.9376): 1159.3 ± 1.1 m/s; speed of sound (248.88 K, 100010 kPa, x2 = 0.9376): 1246.2 ± 1.1 m/s; speed of sound (248.88 K, 125000 kPa, x2 = 0.9376): 1320.1 ± 1.1 m/s; speed of sound (248.88 K, 149990 kPa, x2 = 0.9376): 1385.8 ± 1.2 m/s; speed of sound (248.88 K, 174980 kPa, x2 = 0.9376): 1447.1 ± 1.2 m/s; speed of sound (249.03 K, 7920 kPa, x2 = 0.9683): 797.2 ± 1.1 m/s and 796.4 ± 1.1 m/s; speed of sound (249.03 K, 14790 kPa, x2 = 0.9683): 852.8 ± 1.1 m/s; speed of sound (249.03 K, 25010 kPa, x2 = 0.9683): 922.3 ± 1 m/s; speed of sound (249.03 K, 49980 kPa, x2 = 0.9683): 1052.6 ± 1 m/s; speed of sound (249.03 K, 75760 kPa, x2 = 0.9683): 1155.3 ± 1.1 m/s; speed of sound (249.03 K, 100410 kPa, x2 = 0.9683): 1239.6 ± 1.1 m/s; speed of sound (249.03 K, 125280 kPa, x2 = 0.9683): 1312.1 ± 1.1 m/s; speed of sound (249.03 K, 150010 kPa, x2 = 0.9683): 1377.4 ± 1.2 m/s; speed of sound (251.21 K, 8050 kPa, x2 = 0.9907): 786.8 ± 1.1 m/s; speed of sound (251.21 K, 8120 kPa, x2 = 0.9907): 787.6 ± 1.1 m/s; speed of sound (251.21 K, 15010 kPa, x2 = 0.9907): 844.2 ± 1.1 m/s; speed of sound (251.21 K, 25270 kPa, x2 = 0.9907): 913.8 ± 1 m/s; speed of sound (251.21 K, 50770 kPa, x2 = 0.9907): 1045.7 ± 1 m/s; speed of sound (251.21 K, 75170 kPa, x2 = 0.9907): 1143.2 ± 1 m/s; speed of sound (251.21 K, 101430 kPa, x2 = 0.9907): 1230.8 ± 1.1 m/s; speed of sound (251.21 K, 124940 kPa, x2 = 0.9907): 1299.1 ± 1.1 m/s; speed of sound (251.21 K, 150910 kPa, x2 = 0.9907): 1366.3 ± 1.2 m/s; speed of sound (273.25 K, 8170 kPa, x2 = 0.9376): 614.5 ± 1.5 m/s; speed of sound (273.25 K, 8180 kPa, x2 = 0.9376): 614.8 ± 1.5 m/s; speed of sound (273.25 K, 15190 kPa, x2 = 0.9376): 699.7 ± 1.2 m/s; speed of sound (273.25 K, 24920 kPa, x2 = 0.9376): 787.4 ± 1 m/s; speed of sound (273.25 K, 50000 kPa, x2 = 0.9376): 946.5 ± 1 m/s; speed of sound (273.25 K, 75020 kPa, x2 = 0.9376): 1062.2 ± 1 m/s; speed of sound (273.25 K, 100040 kPa, x2 = 0.9376): 1155.2 ± 1 m/s; speed of sound (273.25 K, 125010 kPa, x2 = 0.9376): 1236.3 ± 1.1 m/s; speed of sound (273.25 K, 150000 kPa, x2 = 0.9376): 1305.4 ± 1.1 m/s; speed of sound (273.25 K, 175050 kPa, x2 = 0.9376): 1369.6 ± 1.2 m/s; speed of sound (273.25 K, 200000 kPa, x2 = 0.9376): 1428.5 ± 1.2 m/s; speed of sound (273.34 K, 8010 kPa, x2 = 0.9683): 610.5 ± 1.3 m/s and 610.9 ± 1.3 m/s; speed of sound (273.34 K, 14920 kPa, x2 = 0.9683): 694.4 ± 1.2 m/s; speed of sound (273.34 K, 25000 kPa, x2 = 0.9683): 785 ± 1 m/s; speed of sound (273.34 K, 50050 kPa, x2 = 0.9683): 942.8 ± 1 m/s; speed of sound (273.34 K, 75530 kPa, x2 = 0.9683): 1058.9 ± 1 m/s; speed of sound (273.34 K, 100060 kPa, x2 = 0.9683): 1149.4 ± 1 m/s; speed of sound (273.34 K, 125060 kPa, x2 = 0.9683): 1229.3 ± 1.1 m/s; speed of sound (273.34 K, 148510 kPa, x2 = 0.9683): 1293.7 ± 1.1 m/s; speed of sound (273.34 K, 175030 kPa, x2 = 0.9683): 1360.3 ± 1.2 m/s; speed of sound (273.34 K, 200040 kPa, x2 = 0.9683): 1417.3 ± 1.2 m/s; speed of sound (273.39 K, 8050 kPa, x2 = 0.9907): 613.9 ± 1.3 m/s; speed of sound (273.39 K, 8070 kPa, x2 = 0.9907): 614 ± 1.3 m/s; speed of sound (273.39 K, 15140 kPa, x2 = 0.9907): 698.1 ± 1.2 m/s; speed of sound (273.39 K, 25280 kPa, x2 = 0.9907): 787.2 ± 1 m/s; speed of sound (273.39 K, 50080 kPa, x2 = 0.9907): 941.2 ± 1 m/s; speed of sound (273.39 K, 75540 kPa, x2 = 0.9907): 1055.9 ± 1 m/s; speed of sound (273.39 K, 100080 kPa, x2 = 0.9907): 1145.5 ± 1 m/s; speed of sound (273.39 K, 125360 kPa, x2 = 0.9907): 1225.5 ± 1.1 m/s; speed of sound (273.39 K, 150170 kPa, x2 = 0.9907): 1292.3 ± 1.1 m/s; speed of sound (273.39 K, 174970 kPa, x2 = 0.9907): 1354.8 ± 1.2 m/s; speed of sound (273.39 K, 199910 kPa, x2 = 0.9907): 1410.8 ± 1.2 m/s; speed of sound (273.41 K, 15200 kPa, x2 = 0.9981): 699 ± 1.1 m/s; speed of sound (273.41 K, 15230 kPa, x2 = 0.9981): 699 ± 1.1 m/s; speed of sound (273.41 K, 25030 kPa, x2 = 0.9981): 785.6 ± 1 m/s; speed of sound (273.41 K, 50020 kPa, x2 = 0.9981): 939.4 ± 1 m/s; speed of sound (273.41 K, 75010 kPa, x2 = 0.9981): 1052.3 ± 1 m/s; speed of sound (273.41 K, 100020 kPa, x2 = 0.9981): 1143.6 ± 1 m/s; speed of sound (273.41 K, 124950 kPa, x2 = 0.9981): 1220.2 ± 1.1 m/s; speed of sound (273.41 K, 150010 kPa, x2 = 0.9981): 1288.3 ± 1.1 m/s; speed of sound (273.41 K, 174990 kPa, x2 = 0.9981): 1349.1 ± 1.2 m/s; speed of sound (273.41 K, 200000 kPa, x2 = 0.9981): 1404.5 ± 1.2 m/s; speed of sound (298.13 K, 25110 kPa, x2 = 0.9907): 654.1 ± 0.9 m/s; speed of sound (298.13 K, 25180 kPa, x2 = 0.9907): 653.9 ± 0.9 m/s; speed of sound (298.13 K, 50020 kPa, x2 = 0.9907): 837.8 ± 1 m/s; speed of sound (298.13 K, 50040 kPa, x2 = 0.9981): 837.4 ± 0.9 m/s and 837.3 ± 0.9 m/s; speed of sound (298.13 K, 74940 kPa, x2 = 0.9981): 962.5 ± 0.9 m/s; speed of sound (298.13 K, 75230 kPa, x2 = 0.9907): 965 ± 1 m/s; speed of sound (298.13 K, 100020 kPa, x2 = 0.9981): 1061.9 ± 1 m/s; speed of sound (298.13 K, 100100 kPa, x2 = 0.9907): 1064 ± 1 m/s; speed of sound (298.13 K, 124970 kPa, x2 = 0.9907): 1147.9 ± 1 m/s; speed of sound (298.13 K, 125020 kPa, x2 = 0.9981): 1145.5 ± 1 m/s; speed of sound (298.13 K, 149790 kPa, x2 = 0.9907): 1220.2 ± 1.1 m/s; speed of sound (298.13 K, 150010 kPa, x2 = 0.9981): 1219.2 ± 1.1 m/s; speed of sound (298.13 K, 174530 kPa, x2 = 0.9907): 1285.6 ± 1.1 m/s; speed of sound (298.13 K, 174980 kPa, x2 = 0.9981): 1285.5 ± 1.1 m/s; speed of sound (298.13 K, 200010 kPa, x2 = 0.9981): 1346.1 ± 1.2 m/s; speed of sound (298.13 K, 200530 kPa, x2 = 0.9907): 1346.2 ± 1.2 m/s; speed of sound (298.14 K, 14950 kPa, x2 = 0.9683): 531.8 ± 1.3 m/s; speed of sound (298.14 K, 14960 kPa, x2 = 0.9683): 532.2 ± 1.3 m/s; speed of sound (298.14 K, 24980 kPa, x2 = 0.9683): 654.5 ± 1 m/s; speed of sound (298.14 K, 50050 kPa, x2 = 0.9683): 841.6 ± 1 m/s; speed of sound (298.14 K, 74950 kPa, x2 = 0.9683): 969 ± 1 m/s; speed of sound (298.14 K, 100060 kPa, x2 = 0.9683): 1070 ± 1 m/s; speed of sound (298.14 K, 125000 kPa, x2 = 0.9683): 1154.1 ± 1 m/s; speed of sound (298.14 K, 150290 kPa, x2 = 0.9683): 1228.9 ± 1.1 m/s; speed of sound (298.14 K, 175030 kPa, x2 = 0.9683): 1294.1 ± 1.1 m/s; speed of sound (298.14 K, 200020 kPa, x2 = 0.9683): 1354.1 ± 1.2 m/s; speed of sound (298.18 K, 8210 kPa, x2 = 0.9376): 388.5 ± 2.4 m/s; speed of sound (298.18 K, 15120 kPa, x2 = 0.9376): 538.7 ± 1.7 m/s and 538.6 ± 1.7 m/s; speed of sound (298.18 K, 24990 kPa, x2 = 0.9376): 659 ± 1 m/s; speed of sound (298.18 K, 49980 kPa, x2 = 0.9376): 846.6 ± 1 m/s; speed of sound (298.18 K, 75090 kPa, x2 = 0.9376): 975.1 ± 1 m/s
